Reference: patent US10144706B2 (BRISTOL-MYERS SQUIBB COMPANY, priority 2016, dated 2018)
Like-named read-outs stand apart in the source and are kept apart here.

Molecular target: T1, PD-1/PD-L1 interaction (PD-1-Ig / PD-L1-His) (Homo sapiens, UniProt Q9NZQ7)
T1 construct: hPDL1(18-239)-TVMV-His; TVMV protease site linker (C); made in house; host or cells: HEK293T
Test: PD-1/PD-L1 Homogenous Time-Resolved Fluorescence (HTRF) binding assay
Conditions: PD-L1-His 10 nM, PD-1-Ig 20 nM, read-out: Range or IC50
Summary of the method: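 HTRF detection used 1 nM europium-cryptate anti-Ig and 20 nM APC anti-His. Compounds first saw 10 nM PD-L1-His for 15 min, and 20 nM PD-1-Ig was then added for another 15 min. Buffer was dPBS plus 0.1% BSA and 0.05% Tween-20. All concentrations are final.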

T1 sequence (Q9NZQ7 with tags, fused parts or gaps): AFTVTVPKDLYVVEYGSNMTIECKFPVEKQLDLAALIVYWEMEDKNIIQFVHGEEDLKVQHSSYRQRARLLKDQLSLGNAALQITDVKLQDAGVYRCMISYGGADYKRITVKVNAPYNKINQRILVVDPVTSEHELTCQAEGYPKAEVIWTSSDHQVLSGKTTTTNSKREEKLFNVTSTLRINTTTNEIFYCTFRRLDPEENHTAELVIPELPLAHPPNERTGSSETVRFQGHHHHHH

SMILES	IC50 (IC50 range class)	IC50 (numeric IC50)
Cc1c(COc2cc(OCc3cc(F)cc(F)c3)c(CN3CCCC[C@H]3C(=O)O)cc2Cl)cccc1-c1cccc(COc2cc(OCc3cc(F)cc(F)c3)c(CN3CCCC[C@H]3C(=O)O)cc2Cl)c1C [Example 5006, (2S,2′S)-1,1′-(((((2,2′-dimethyl-[1,1′-biphenyl]-3,3′-diyl)bis(methylene))bis(oxy))bis(5-chloro-2-((3,5-difluorobenzyl)oxy)-4,1-phenylene))bis(methylene))bis(piperidine-2-carboxylic acid)]	0.04 to 20 nM	–
Cc1c(COc2cc(OCc3cc(F)cc(F)c3)c(CNC(C)(CO)CO)cc2Cl)cccc1-c1cccc(COc2cc(OCc3cc(F)cc(F)c3)c(CNC(C)(CO)CO)cc2Cl)c1C [Example 5007, 2,2′-((((((2,2′-dimethyl-[1,1′-biphenyl]-3,3′-diyl)bis(methylene))bis(oxy))bis(5-chloro-2-((3,5-difluorobenzyl)oxy)-4,1-phenylene))bis(methylene))bis(azanediyl))bis(2-methylpropane-1,3-diol)]	0.04 to 20 nM	–
Cc1c(COc2cc(OCc3cc(F)cc(F)c3)c(CN[C@@H](CO)C(=O)O)cc2Cl)cccc1-c1cccc(COc2cc(OCc3cc(F)cc(F)c3)c(CN[C@@H](CO)C(=O)O)cc2Cl)c1C [Example 5008, (2S,2′S)-2,2′-((((((2,2′-dimethyl-[1,1′-biphenyl]-3,3′-diyl)bis(methylene))bis(oxy))bis(5-chloro-2-((3,5-difluorobenzyl)oxy)-4,1-phenylene))bis(methylene))bis(azanediyl))bis(3-hydroxypropanoic acid)]	20.1 to 90 nM	–
Cc1c(COc2cc(OCc3cc(F)cc(F)c3)c(CN[C@@](C)(CO)C(=O)O)cc2Cl)cccc1-c1cccc(COc2cc(OCc3cc(F)cc(F)c3)c(CN[C@@](C)(CO)C(=O)O)cc2Cl)c1C [Example 5009, (2S,2′S)-2,2′-((((((2,2′-dimethyl-[1,1′-biphenyl]-3,3′-diyl)bis(methylene))bis(oxy))bis(5-chloro-2-((3,5-difluorobenzyl)oxy)-4,1-phenylene))bis(methylene))bis(azanediyl))bis(3-hydroxy-2-methylpropanoic acid)]	0.04 to 20 nM	–
Cc1c(COc2cc(OCc3cc(F)cc(F)c3)c(CN(C)C(C)(CO)CO)cc2Cl)cccc1-c1cccc(COc2cc(OCc3cc(F)cc(F)c3)c(CN(C)C(C)(CO)CO)cc2Cl)c1C [Example 5012, 2,2′-((((((2,2′-dimethyl-[1,1′-biphenyl]-3,3′-diyl)bis(methylene))bis(oxy))bis(5-chloro-2-((3,5-difluorobenzyl)oxy)-4,1-phenylene))bis(methylene))bis(methylazanediyl))bis(2-methylpropane-1,3-diol)]	20.1 to 90 nM	–
Cc1c(COc2cc(OCc3cc(F)cc(F)c3)c(CN(C)[C@@H](CO)C(=O)O)cc2Cl)cccc1-c1cccc(COc2cc(OCc3cc(F)cc(F)c3)c(CN(C)[C@@H](CO)C(=O)O)cc2Cl)c1C [Example 5013, (2S,2′S)-2,2′-((((((2,2′-dimethyl-[1,1′-biphenyl]-3,3′-diyl)bis(methylene))bis(oxy))bis(5-chloro-2-((3,5-difluorobenzyl)oxy)-4,1-phenylene))bis(methylene))bis(methylazanediyl))bis(3-hydroxypropanoic acid)]	20.1 to 90 nM	–
Cc1c(COc2cc(OCc3cc(F)cc(F)c3)c(CN(C)[C@@](C)(CO)C(=O)O)cc2Cl)cccc1-c1cccc(COc2cc(OCc3cc(F)cc(F)c3)c(CN(C)[C@@](C)(CO)C(=O)O)cc2Cl)c1C [Example 5014, (2S,2′S)-2,2′-((((((2,2′-dimethyl-[1,1′-biphenyl]-3,3′-diyl)bis(methylene))bis(oxy))bis(5-chloro-2-((3,5-difluorobenzyl)oxy)-4,1-phenylene))bis(methylene))bis(methylazanediyl))bis(3-hydroxy-2-methylpropanoic acid)]	20.1 to 90 nM	–
Cc1c(COc2cc(OCc3cc(F)cc(F)c3)c(CN(C)[C@H](C(=O)O)C(C)C)cc2Cl)cccc1-c1cccc(COc2cc(OCc3cc(F)cc(F)c3)c(CN(C)[C@H](C(=O)O)C(C)C)cc2Cl)c1C [Example 5015, (2S,2′S)-2,2′-((((((2,2′-dimethyl-[1,1′-biphenyl]-3,3′-diyl)bis(methylene))bis(oxy))bis(5-chloro-2-((3,5-difluorobenzyl)oxy)-4,1-phenylene))bis(methylene))bis(methylazanediyl))bis(3-methylbutanoic acid)]	20.1 to 90 nM	–
CCC[C@@H](C(=O)O)N(C)Cc1cc(Cl)c(OCc2cccc(-c3cccc(COc4cc(OCc5cc(F)cc(F)c5)c(CN(C)[C@@H](CCC)C(=O)O)cc4Cl)c3C)c2C)cc1OCc1cc(F)cc(F)c1 [Example 5016, (2S,2′S)-2,2′-((((((2,2′-dimethyl-[1,1′-biphenyl]-3,3′-diyl)bis(methylene))bis(oxy))bis(5-chloro-2-((3,5-difluorobenzyl)oxy)-4,1-phenylene))bis(methylene))bis(methylazanediyl))dipentanoic acid]	–	31 nM
Cc1c(COc2cc(OCc3cc(F)cc(F)c3)c(CN(C)[C@@H](CC(C)C)C(=O)O)cc2Cl)cccc1-c1cccc(COc2cc(OCc3cc(F)cc(F)c3)c(CN(C)[C@@H](CC(C)C)C(=O)O)cc2Cl)c1C [Example 5017, (2S,2′S)-2,2′-((((((2,2′-dimethyl-[1,1′-biphenyl]-3,3′-diyl)bis(methylene))bis(oxy))bis(5-chloro-2-((3,5-difluorobenzyl)oxy)-4,1-phenylene))bis(methylene))bis(methylazanediyl))bis(4-methylpentanoic acid)]	0.04 to 20 nM	–
Cc1c(COc2cc(OCc3ccc(-n4cccn4)nc3)c(CN[C@H](C(=O)O)[C@@H](C)O)cc2Cl)cccc1-c1cccc(COc2cc(OCc3ccc(-n4cccn4)nc3)c(CN[C@H](C(=O)O)[C@@H](C)O)cc2Cl)c1C [Example 5018, (2S,2′S,3R,3′R)-2,2′-((((((2,2′-dimethyl-[1,1′-biphenyl]-3,3′-diyl)bis(methylene))bis(oxy))bis(2-((6-(1H-pyrazol-1-yl)pyridin-3-yl)methoxy)-5-chloro-4,1-phenylene))bis(methylene))bis(azanediyl))bis(3-hydroxybutanoic acid)]	0.04 to 20 nM	–

Second part, the compound after the results:

IC50 (IC50 range class)	IC50 (numeric IC50)	SMILES
20.1 to 90 nM	–	Cc1c(COc2cc(OCc3ccc(-n4cccn4)nc3)c(CNC(CO)CO)cc2Cl)cccc1-c1cccc(COc2cc(OCc3ccc(-n4cccn4)nc3)c(CNC(CO)CO)cc2Cl)c1C [Example 5019, 2,2′-((((((2,2′-dimethyl-[1,1′-biphenyl]-3,3′-diyl)bis(methylene))bis(oxy))bis(2-((6-(1H-pyrazol-1-yl)pyridin-3-yl)methoxy)-5-chloro-4,1-phenylene))bis(methylene))bis(azanediyl))bis(propane-1,3-diol)]
0.04 to 20 nM	–	Cc1c(COc2cc(OCc3ccc(-n4cccn4)nc3)c(CNC(C)(CO)CO)cc2Cl)cccc1-c1cccc(COc2cc(OCc3ccc(-n4cccn4)nc3)c(CNC(C)(CO)CO)cc2Cl)c1C [Example 5020, 2,2′-((((((2,2′-dimethyl-[1,1′-biphenyl]-3,3′-diyl)bis(methylene))bis(oxy))bis(2-((6-(1H-pyrazol-1-yl)pyridin-3-yl)methoxy)-5-chloro-4,1-phenylene))bis(methylene))bis(azanediyl))bis(2-methylpropane-1,3-diol)]
0.04 to 20 nM	–	Cc1c(COc2cc(OCc3ccc(-n4cccn4)nc3)c(CN3CCCC[C@H]3C(=O)O)cc2Cl)cccc1-c1cccc(COc2cc(OCc3ccc(-n4cccn4)nc3)c(CN3CCCC[C@H]3C(=O)O)cc2Cl)c1C [Example 5021, (2S,2′S)-1,1′-(((((2,2′-dimethyl-[1,1′-biphenyl]-3,3′-diyl)bis(methylene))bis(oxy))bis(2-((6-(1H-pyrazol-1-yl)pyridin-3-yl)methoxy)-5-chloro-4,1-phenylene))bis(methylene))bis(piperidine-2-carboxylic acid)]
0.04 to 20 nM	–	Cc1c(COc2cc(OCc3ccc(-n4cccn4)nc3)c(CN[C@@](C)(CO)C(=O)O)cc2Cl)cccc1-c1cccc(COc2cc(OCc3ccc(-n4cccn4)nc3)c(CN[C@@](C)(CO)C(=O)O)cc2Cl)c1C [Example 5022, (2S,2′S)-2,2′-((((((2,2′-dimethyl-[1,1′-biphenyl]-3,3′-diyl)bis(methylene))bis(oxy))bis(2-((6-(1H-pyrazol-1-yl)pyridin-3-yl)methoxy)-5-chloro-4,1-phenylene))bis(methylene))bis(azanediyl))bis(3-hydroxy-2-methylpropanoic acid)]
20.1 to 90 nM	–	Cc1c(COc2cc(OCc3ccc(-n4cccn4)nc3)c(CN(C)C(C)(CO)CO)cc2Cl)cccc1-c1cccc(COc2cc(OCc3ccc(-n4cccn4)nc3)c(CN(C)C(C)(CO)CO)cc2Cl)c1C [Example 5023, 2,2′-((((((2,2′-dimethyl-[1,1′-biphenyl]-3,3′-diyl)bis(methylene))bis(oxy))bis(2-((6-(1H-pyrazol-1-yl)pyridin-3-yl)methoxy)-5-chloro-4,1-phenylene))bis(methylene))bis(methylazanediyl))bis(2-methylpropane-1,3-diol)]
0.04 to 20 nM	–	Cc1c(COc2cc(OCc3ccc(-n4cccn4)nc3)c(CN(C)C(C)(C)C(=O)O)cc2Cl)cccc1-c1cccc(COc2cc(OCc3ccc(-n4cccn4)nc3)c(CN(C)C(C)(C)C(=O)O)cc2Cl)c1C [Example 5024, 2,2′-((((((2,2′-dimethyl-[1,1′-biphenyl]-3,3′-diyl)bis(methylene))bis(oxy))bis(2-((6-(1H-pyrazol-1-yl)pyridin-3-yl)methoxy)-5-chloro-4,1-phenylene))bis(methylene))bis(methylazanediyl))bis(2-methylpropanoic acid)]
